Experimental data published in patent US20080220416A1, “Compositions for Inhibiting Cell Growth and Inducing Apoptosis in Cancer Cells and Methods of Use Thereof” (THE BOARD OF TRUSTEES OF THE UNIVERSITY OF ILLINOI, priority 2004, published 2008).
Square brackets hold non-standard residues; d marks the D form. Peptide text beside a SMILES is read from it. * marks the point of attachment. Nle = CCCC[C@H](N)C(=O)O; Cbz = O=C(OCc1ccccc1)*

Experiments:
[1] = system: Notch-1; test: Notch-1 siRNA in CaSki cells, Notch-1 and Notch-4 Western blot; format: cell-based, human
Protocol: The human papilloma virus (HPV)-positive human cervical cancer cell line CaSki was obtained from ATCC (Rockville, Md.) and cultured in DMEM medium with 10% FBS. Double-stranded synthetic 21-mer RNA oligonucleotides (siRNAs) were purchased from Dharmacon (Lafayette, Colo.). […] Sequence specificity was determined by BLAST searches for the uniqueness. Transfection of CaSki human cervical cancer cells with siRNAs (200 nM siRNA oligos/60 mm dish) was performed by using Oligofectamine Transfection Reagents (InVitrogen) according to manufacturer's instructions.
At 24 and 48 hours after transfection with Notch-1 siRNA or scrambled control siRNA, the CaSki cells were assayed for Notch-1 and Notch-4 expression by Western blotting. Immunoblotting was performed using antibodies to Notch-1 (C-20), and Notch-4 (H-225) from Santa Cruz Biotechnology (Santa Cruz, Calif.). Secondary anti-goat, anti-mouse, anti-rabbit and anti-rat antibodies (IgG-HR1) were purchased from Vector Laboratories (Burlingame, Calif.), Santa Cruz Biotechnology and Amersham Biosciences. For Western blot analysis, equal amounts of protein extracted from each sample (30 μg) were loaded into pre-cast 7% NuPAGE Tris-acetate gels or 4-12% NuPAGE Bis-tris gels (Invitrogen). Proteins were separated by SDS-PAGE and transferred to polyvinylidene difluoride membranes (Bio-Rad, Hercules, Calif.) using Invitrogen's buffering system. […]

[2] = system: RJ002L melanoma cells; test: Dosing study versus chemotherapeutic agents, killing of RJ002L melanoma cells; format: cell-based, human
Protocol: An initial dosing study comparing z-Leu-Leu-Nle-CHO against three different chemotherapeutic agents (i.e., adriamycin, etoposide, and cisplatin) was performed to evaluate the relative effectiveness of z-Leu-Leu-Nle-CHO in killing melanoma cells. In agreement with a previous report by Soengas, M. S. et al., 2001, Nature 409.207-211, SK-MeI-28 cells, carrying a mutated p53, were relatively resistant to killing by adriamycin, as well as to killing by other chemotherapeutic agents. For SK-MeI-28 melanoma cells, the maximal apoptotic response for adriamycin, etoposide, cisplatin, and z-Leu-Leu-Nle-CHO was 12.0%, 2.6%, 4.0%, and 29.4%, respectively. For RJ002L melanoma cells, the maximal apoptotic response for adriamycin, etoposide, cisplatin, and z-Leu-Leu-Nle-CHO was 23.9%, 12.7%, 3.4%, and 45.7%, respectively.

[3] = system: SAOS-2 osteosarcoma cells; test: z-Leu-Leu-Nle-CHO on NOXA and apoptosis in SAOS-2 osteosarcoma cells; format: cell-based; conditions: 10 μM
[4] = system: T47D:C42 breast cancer cells; test: Cytotoxicity assay in T47D:C42 breast cancer cells; format: cell-based; conditions: T47D:C:4:2; T47D:C42 (p53 wild-type, ERα-negative); 48 h; read-out: IC50, cell growth inhibition
Protocol: Cytotoxicity and growth of transfected cells were estimated by a standard assay used for cancer drug screening, through the total amount of TCA-precipitated cell proteins after drug treatment (Likhitwitayawuid, K et al., 1993, J Nat Prod 56:30-38): 200 μl of cell suspension (10^5 cells/ml) were added to each well in a 96-well plate. After incubation at, 37° C., in 5% CO2 (30 minutes to 72 hours depending on the time course chosen), 50 μl 50% trichloroacetic acid was added to each well. After incubation at 4° C. for 1 hour, precipitates were washed with water 4-5 times and air dried overnight. One hundred μl of SRB solution (0.4% sulforhodamine B in 1% acetic acid, filtered before use) was added to each well for 30 minutes. Wells were washed with 1% acetic acid 4-5 times and air dried. Two hundred μl 10 mM Tris base was added to each well. Plates were shaken for 5-10 minutes and OD at 490 nm (OD490) was recorded via ELISA reader. To assay matrix invasion, 300 μl of cell suspension (10^6 cells/mL in serum-free medium) were added to invasion inserts (BioCoat Matrigel Invasion Chambers, Becton Dickinson, Bedford, Mass.) and incubated for 22 hours at 37° C., 5% CO2. Cells were stained with 0.9% crystal violet in 10% ethanol for 20 minutes. […] After removal of the non-invading cells from the interior of the inserts, stained invading cells were lysed in 10% acetic acid and OD595 was determined. […]

Row | Molecule | Notch-1 signaling ([1]; 200 nM siRNA, 24 and 48 hours after transfection) | Notch-4 levels ([1]; data not shown) | maximal apoptotic response [2] [%] | NOXA expression ([3]; SAOS-2, p53 null) | dead cells ([3]; SAOS-2, after 24 hrs, data not shown) [%] | IC50 [4] [nM]
1 | 5′-AAGTGTCTGAGGCCAGCAAGA-3′ [Notch-1 siRNA] | effective in genetically inhibiting Notch-1 signaling | did not effect levels of Notch-4 |  |  |  | 
2 | CCCC[C@@H](C=O)NC(=O)[C@H](CC(C)C)NC(=O)[C@H](CC(C)C)NC(=O)OCc1ccccc1 [z-Leu-Leu-Nle-CHO, N-benzyloxycarbonyl-leucyl-leucyl-norleucinal] (Cbz-Leu-Leu-[Nle]-aldehyde) |  |  | 45.7 | induced expression of NOXA | > 50 | 380
